{"source": "patent US9278076B2", "about": "“Chronotherapeutic dosage forms” (Endo Pharmaceuticals Inc., priority 2003, dated 2016)", "origin": "cited, not measured here"}
{"details": "glucocorticoid equivalence chart", "units": {"Approximate Equivalent Dose": "mg"}}
{"molecule": "C[C@]12CCC(=O)C=C1CC[C@@H]1[C@@H]2C(=O)C[C@@]2(C)[C@H]1CC[C@]2(O)C(=O)CO", "note": "[Cortisone]", "Approximate Equivalent Dose": 25}
{"molecule": "C[C@]12CCC(=O)C=C1CC[C@@H]1[C@@H]2[C@@H](O)C[C@@]2(C)[C@H]1CC[C@]2(O)C(=O)CO", "note": "[Hydrocortisone]", "Approximate Equivalent Dose": 20}
{"molecule": "C[C@]12C=CC(=O)C=C1CC[C@@H]1[C@@H]2[C@@H](O)C[C@@]2(C)[C@H]1CC[C@]2(O)C(=O)CO", "note": "[Prednisolone]", "Approximate Equivalent Dose": 5}
{"molecule": "C[C@]12C=CC(=O)C=C1CC[C@H]1[C@@H]3C[C@@H](O)[C@](O)(C(=O)CO)[C@@]3(C)C[C@H](O)[C@@]12F", "note": "[Triamcinolone]", "Approximate Equivalent Dose": 4}
